One may read the IC50 as the concentration at which inhibition is half-maximal.

Tested on in the first series: not listed separately
Put plainly: Selectivity index, ratio of IC50 for cytotoxicity against human MRC5 cells to IC50 for antiparasitic activity against epimastigote form of Trypanosoma cruzi DA (TcI). To be noted: read-out: Ratio IC50. The class given is toxicity, cell-based.
Take `Cc1sc(-c2ccc(CCN(C)C)cc2)cc1C1=C(c2cc(-c3ccc(CCN(C)C)cc3)sc2C)CCC1`: the selectivity ratio is less than 1.
Take `NCCOc1cc(C(=O)Nc2cc(OCCN)c3ccccc3n2)nc(C(=O)Nc2cc(OCCN)c3ccccc3n2)c1` [PYRIDOSTATIN]: the selectivity ratio is less than 1.
Still for that read-out and setting: as for `Cc1sc(-c2ccc(CC[N+](C)(C)C)cc2)cc1C1=C(c2cc(-c3ccc(CC[N+](C)(C)C)cc3)sc2C)CCC1`, the figure is less than 1; as for `Cc1sc(-c2ccc(CN3CCCC3)cc2)cc1C1=C(c2cc(-c3ccc(CN4CCCC4)cc3)sc2C)CCC1`, 1.2.
The same measure, in the same setting: as for `CN(C)c1ccc(Nc2c3ccc(NC(=O)CCN4CCCC4)cc3nc3cc(NC(=O)CCN4CCCC4)ccc23)cc1`, the figure is less than 1.
The same measure, in the same setting: as for `CN(C)CCc1ccc(C2=CC3=C4CCCC4=C4C=C(c5ccc(CCN(C)C)cc5)S[C@]4(C)[C@@]3(C)S2)cc1`, the figure is less than 1; as for `Cc1sc(-c2cc[n+](C)cc2)cc1C1=C(c2cc(-c3cc[n+](C)cc3)sc2C)CCC1`, less than 1.

The subject of a further series is Trypanosoma cruzi. Put plainly: Antiparasitic activity against epimastigote form of Trypanosoma cruzi SOL(TcV) assessed as inhibition of parasite growth incubated for 96 hrs followed by incubation in dark with resazurin for 4 to 6 hrs by resazurin dye based fluorescence analysis. The format is functional, organism-based.
Details: not given
In general terms: Alamar Blue is a resazurin reagent that responds to reducing activity.
On to `Cc1sc(-c2ccc(CCN(C)C)cc2)cc1C1=C(c2cc(-c3ccc(CCN(C)C)cc3)sc2C)CCC1`, for which the IC50 is 3.8 µM.
On the same count and under the same terms, the figure for `NCCOc1cc(C(=O)Nc2cc(OCCN)c3ccccc3n2)nc(C(=O)Nc2cc(OCCN)c3ccccc3n2)c1` [PYRIDOSTATIN] is greater than 100 µM; for `Cc1sc(-c2ccc(CC[N+](C)(C)C)cc2)cc1C1=C(c2cc(-c3ccc(CC[N+](C)(C)C)cc3)sc2C)CCC1` it is 21.2 µM; for `Cc1sc(-c2ccc(CN3CCCC3)cc2)cc1C1=C(c2cc(-c3ccc(CN4CCCC4)cc3)sc2C)CCC1` it is 9.75 µM.
On the same count and under the same terms, as for `CN(C)c1ccc(Nc2c3ccc(NC(=O)CCN4CCCC4)cc3nc3cc(NC(=O)CCN4CCCC4)ccc23)cc1`, the figure is greater than 100 µM; as for `CN(C)CCc1ccc(C2=CC3=C4CCCC4=C4C=C(c5ccc(CCN(C)C)cc5)S[C@]4(C)[C@@]3(C)S2)cc1`, 45.1 µM.
The same measure, in the same setting: the figure for `Cc1sc(-c2cc[n+](C)cc2)cc1C1=C(c2cc(-c3cc[n+](C)cc3)sc2C)CCC1` is greater than 27.4 µM.

A further series relates to Trypanosoma cruzi. Put plainly: Antiparasitic activity against epimastigote form of Trypanosoma cruzi BM Lopez (TcIa) assessed as inhibition of parasite growth incubated for 96 hrs followed by incubation with resazurin for 4 to 6 hrs by resazurin dye based fluorescence analysis. The format is functional, organism-based.
Details: not given
In the case of `Cc1sc(-c2ccc(CCN(C)C)cc2)cc1C1=C(c2cc(-c3ccc(CCN(C)C)cc3)sc2C)CCC1`, the 50% inhibitory concentration (IC50) is 4 µM.
Same read-out and setting: the figure for `NCCOc1cc(C(=O)Nc2cc(OCCN)c3ccccc3n2)nc(C(=O)Nc2cc(OCCN)c3ccccc3n2)c1` [PYRIDOSTATIN] is greater than 100 µM.
On to `Cc1sc(-c2ccc(CC[N+](C)(C)C)cc2)cc1C1=C(c2cc(-c3ccc(CC[N+](C)(C)C)cc3)sc2C)CCC1`, for which the IC50 amounted to 19.1 µM.
On to `Cc1sc(-c2ccc(CN3CCCC3)cc2)cc1C1=C(c2cc(-c3ccc(CN4CCCC4)cc3)sc2C)CCC1`, for which the IC50 worked out at 4.6 µM.
The same measure, in the same setting: the figure for `CN(C)c1ccc(Nc2c3ccc(NC(=O)CCN4CCCC4)cc3nc3cc(NC(=O)CCN4CCCC4)ccc23)cc1` is 49.4 µM.
Same read-out and setting: the figure for `CN(C)CCc1ccc(C2=CC3=C4CCCC4=C4C=C(c5ccc(CCN(C)C)cc5)S[C@]4(C)[C@@]3(C)S2)cc1` is greater than 48.4 µM; for `Cc1sc(-c2cc[n+](C)cc2)cc1C1=C(c2cc(-c3cc[n+](C)cc3)sc2C)CCC1` it is greater than 28.6 µM.

Tested on in the next series: not listed separately
Put plainly: Selectivity index, ratio of IC50 for cytotoxicity against human MRC5 cells to IC50 for antiparasitic activity against epimastigote form of Trypanosoma cruzi Y (TcII). The format is toxicity, cell-based. The note with it: read-out: Ratio IC50.
For the compound `Cc1sc(-c2ccc(CCN(C)C)cc2)cc1C1=C(c2cc(-c3ccc(CCN(C)C)cc3)sc2C)CCC1`, the selectivity ratio was less than 1.
On the same count and under the same terms, as for `NCCOc1cc(C(=O)Nc2cc(OCCN)c3ccccc3n2)nc(C(=O)Nc2cc(OCCN)c3ccccc3n2)c1` [PYRIDOSTATIN], the figure is less than 1; as for `Cc1sc(-c2ccc(CC[N+](C)(C)C)cc2)cc1C1=C(c2cc(-c3ccc(CC[N+](C)(C)C)cc3)sc2C)CCC1`, less than 1.
In the case of `Cc1sc(-c2ccc(CN3CCCC3)cc2)cc1C1=C(c2cc(-c3ccc(CN4CCCC4)cc3)sc2C)CCC1`, the selectivity ratio came to 1.1.
Same read-out and setting: as for `CN(C)c1ccc(Nc2c3ccc(NC(=O)CCN4CCCC4)cc3nc3cc(NC(=O)CCN4CCCC4)ccc23)cc1`, the figure is less than 1; as for `CN(C)CCc1ccc(C2=CC3=C4CCCC4=C4C=C(c5ccc(CCN(C)C)cc5)S[C@]4(C)[C@@]3(C)S2)cc1`, less than 1.
Still for that read-out and setting: the figure for `Cc1sc(-c2cc[n+](C)cc2)cc1C1=C(c2cc(-c3cc[n+](C)cc3)sc2C)CCC1` is less than 1.

Tested on in another series: not listed separately
The series can be described thus: Cytotoxicity against human MRC5 cells. The format is toxicity, cell-based.
Details: not given
`Cc1sc(-c2ccc(CCN(C)C)cc2)cc1C1=C(c2cc(-c3ccc(CCN(C)C)cc3)sc2C)CCC1` gave a 50% inhibitory concentration (IC50) of 2.6 µM.
Still for that read-out and setting: the figure for `Cc1sc(-c2ccc(CC[N+](C)(C)C)cc2)cc1C1=C(c2cc(-c3ccc(CC[N+](C)(C)C)cc3)sc2C)CCC1` is 2.7 µM; for `Cc1sc(-c2ccc(CN3CCCC3)cc2)cc1C1=C(c2cc(-c3ccc(CN4CCCC4)cc3)sc2C)CCC1` it is 7.2 µM; for `CN(C)CCc1ccc(C2=CC3=C4CCCC4=C4C=C(c5ccc(CCN(C)C)cc5)S[C@]4(C)[C@@]3(C)S2)cc1` it is 6.1 µM.
On the same count and under the same terms, as for `Cc1sc(-c2cc[n+](C)cc2)cc1C1=C(c2cc(-c3cc[n+](C)cc3)sc2C)CCC1`, the figure is 2.4 µM.

The test system of another series is Trypanosoma cruzi. The series can be described thus: Antiparasitic activity against epimastigote form of Trypanosoma cruzi DA (TcI) assessed as inhibition of parasite growth incubated for 96 hrs followed by incubation with resazurin for 4 to 6 hrs by resazurin dye based fluorescence analysis. The class given is functional, organism-based.
Details: not given
For `Cc1sc(-c2ccc(CCN(C)C)cc2)cc1C1=C(c2cc(-c3ccc(CCN(C)C)cc3)sc2C)CCC1`, the concentration for half-maximal inhibition (IC50) was found to be 2.7 µM.
On the same count and under the same terms, the figure for `NCCOc1cc(C(=O)Nc2cc(OCCN)c3ccccc3n2)nc(C(=O)Nc2cc(OCCN)c3ccccc3n2)c1` [PYRIDOSTATIN] is greater than 100 µM.
On to `Cc1sc(-c2ccc(CC[N+](C)(C)C)cc2)cc1C1=C(c2cc(-c3ccc(CC[N+](C)(C)C)cc3)sc2C)CCC1`, for which the concentration for half-maximal inhibition (IC50) was 6.8 µM.
On the same count and under the same terms, the figure for `Cc1sc(-c2ccc(CN3CCCC3)cc2)cc1C1=C(c2cc(-c3ccc(CN4CCCC4)cc3)sc2C)CCC1` is 6.1 µM; for `CN(C)c1ccc(Nc2c3ccc(NC(=O)CCN4CCCC4)cc3nc3cc(NC(=O)CCN4CCCC4)ccc23)cc1` it is 47.5 µM.
In the case of `CN(C)CCc1ccc(C2=CC3=C4CCCC4=C4C=C(c5ccc(CCN(C)C)cc5)S[C@]4(C)[C@@]3(C)S2)cc1`, the IC50 came to 13.4 µM.
The same measure, in the same setting: the figure for `Cc1sc(-c2cc[n+](C)cc2)cc1C1=C(c2cc(-c3cc[n+](C)cc3)sc2C)CCC1` is greater than 28.2 µM.

In the next series the test system is Trypanosoma cruzi. The series can be described thus: Antiparasitic activity against epimastigote form of Trypanosoma cruzi Y(TcII) assessed as inhibition of parasite growth incubated for 96 hrs followed by incubation with resazurin for 4 to 6 hrs by resazurin dye based fluorescence analysis. The class given is functional, organism-based.
Details: not given
For the compound `Cc1sc(-c2ccc(CCN(C)C)cc2)cc1C1=C(c2cc(-c3ccc(CCN(C)C)cc3)sc2C)CCC1`, the concentration for half-maximal inhibition (IC50) is 3.6 µM.
Consider `NCCOc1cc(C(=O)Nc2cc(OCCN)c3ccccc3n2)nc(C(=O)Nc2cc(OCCN)c3ccccc3n2)c1` [PYRIDOSTATIN], for which the 50% inhibitory concentration (IC50) is greater than 100 µM.
Same read-out and setting: the figure for `Cc1sc(-c2ccc(CC[N+](C)(C)C)cc2)cc1C1=C(c2cc(-c3ccc(CC[N+](C)(C)C)cc3)sc2C)CCC1` is 14.2 µM; for `Cc1sc(-c2ccc(CN3CCCC3)cc2)cc1C1=C(c2cc(-c3ccc(CN4CCCC4)cc3)sc2C)CCC1` it is 6.6 µM; for `CN(C)c1ccc(Nc2c3ccc(NC(=O)CCN4CCCC4)cc3nc3cc(NC(=O)CCN4CCCC4)ccc23)cc1` it is greater than 100 µM.
The same measure, in the same setting: the figure for `CN(C)CCc1ccc(C2=CC3=C4CCCC4=C4C=C(c5ccc(CCN(C)C)cc5)S[C@]4(C)[C@@]3(C)S2)cc1` is 31.1 µM.
On the same count and under the same terms, as for `Cc1sc(-c2cc[n+](C)cc2)cc1C1=C(c2cc(-c3cc[n+](C)cc3)sc2C)CCC1`, the figure is 23.1 µM.

Tested on in the next series: not listed separately
The series can be described thus: Selectivity index, ratio of IC50 for cytotoxicity against human MRC5 cells to IC50 for antiparasitic activity against epimastigote form of Trypanosoma cruzi BM Lopez (TcIa). The format is toxicity, cell-based. The note with it: read-out: Ratio IC50.
Consider `Cc1sc(-c2ccc(CCN(C)C)cc2)cc1C1=C(c2cc(-c3ccc(CCN(C)C)cc3)sc2C)CCC1`, for which the selectivity ratio is less than 1.
Same read-out and setting: as for `NCCOc1cc(C(=O)Nc2cc(OCCN)c3ccccc3n2)nc(C(=O)Nc2cc(OCCN)c3ccccc3n2)c1` [PYRIDOSTATIN], the figure is less than 1.
The same measure, in the same setting: as for `Cc1sc(-c2ccc(CC[N+](C)(C)C)cc2)cc1C1=C(c2cc(-c3ccc(CC[N+](C)(C)C)cc3)sc2C)CCC1`, the figure is less than 1; as for `Cc1sc(-c2ccc(CN3CCCC3)cc2)cc1C1=C(c2cc(-c3ccc(CN4CCCC4)cc3)sc2C)CCC1`, 1.6.
Still for that read-out and setting: the figure for `CN(C)c1ccc(Nc2c3ccc(NC(=O)CCN4CCCC4)cc3nc3cc(NC(=O)CCN4CCCC4)ccc23)cc1` is less than 1; for `CN(C)CCc1ccc(C2=CC3=C4CCCC4=C4C=C(c5ccc(CCN(C)C)cc5)S[C@]4(C)[C@@]3(C)S2)cc1` it is less than 1; for `Cc1sc(-c2cc[n+](C)cc2)cc1C1=C(c2cc(-c3cc[n+](C)cc3)sc2C)CCC1` it is less than 1.

Tested on in the next series: not listed separately
Put plainly: Selectivity index, ratio of IC50 for cytotoxicity against human MRC5 cells to IC50 for antiparasitic activity against epimastigote form of Trypanosoma cruzi SOL (TcV). The class given is toxicity, cell-based. To be noted: read-out: Ratio IC50.
Consider `Cc1sc(-c2ccc(CCN(C)C)cc2)cc1C1=C(c2cc(-c3ccc(CCN(C)C)cc3)sc2C)CCC1`, for which the selectivity ratio was less than 1.
The same measure, in the same setting: as for `NCCOc1cc(C(=O)Nc2cc(OCCN)c3ccccc3n2)nc(C(=O)Nc2cc(OCCN)c3ccccc3n2)c1` [PYRIDOSTATIN], the figure is less than 1.
On the same count and under the same terms, the figure for `Cc1sc(-c2ccc(CC[N+](C)(C)C)cc2)cc1C1=C(c2cc(-c3ccc(CC[N+](C)(C)C)cc3)sc2C)CCC1` is less than 1; for `Cc1sc(-c2ccc(CN3CCCC3)cc2)cc1C1=C(c2cc(-c3ccc(CN4CCCC4)cc3)sc2C)CCC1` it is less than 1.
Still for that read-out and setting: as for `CN(C)c1ccc(Nc2c3ccc(NC(=O)CCN4CCCC4)cc3nc3cc(NC(=O)CCN4CCCC4)ccc23)cc1`, the figure is less than 1; as for `CN(C)CCc1ccc(C2=CC3=C4CCCC4=C4C=C(c5ccc(CCN(C)C)cc5)S[C@]4(C)[C@@]3(C)S2)cc1`, less than 1.
In the case of `Cc1sc(-c2cc[n+](C)cc2)cc1C1=C(c2cc(-c3cc[n+](C)cc3)sc2C)CCC1`, the selectivity ratio was less than 1.
